Target: T1, drFtsZ (FtsZWT) (Deinococcus radiodurans, UniProt Q9RWN5)
T1 sequence (Q9RWN5 1-371): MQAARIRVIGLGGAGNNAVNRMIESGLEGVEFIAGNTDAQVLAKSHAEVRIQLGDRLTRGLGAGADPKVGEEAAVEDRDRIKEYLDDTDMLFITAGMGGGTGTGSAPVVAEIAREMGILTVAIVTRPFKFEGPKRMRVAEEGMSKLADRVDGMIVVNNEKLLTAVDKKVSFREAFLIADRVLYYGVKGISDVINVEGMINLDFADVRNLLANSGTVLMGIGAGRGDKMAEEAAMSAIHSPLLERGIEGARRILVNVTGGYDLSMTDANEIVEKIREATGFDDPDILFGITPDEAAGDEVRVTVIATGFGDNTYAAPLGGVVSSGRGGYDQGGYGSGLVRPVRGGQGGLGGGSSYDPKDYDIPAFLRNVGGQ
Experiment: GTPase, [alpha-32P]-GTP to GDP by TLC
Format: biochemical
Settings: 20 mM Tris-HCl pH 7.5, 75 mM KCl, MgCl2, 37 °C, 20 min; labelled compound

For `Nc1nc2c(ncn2[C@@H]2O[C@H](COP(=O)(O)OP(=O)(O)OP(=O)(O)O)[C@@H](O)[C@H]2O)c(=O)[nH]1` [GTP], the “GTPase, [alpha-32P]-GTP to GDP by TLC” value was “The GTPase activity of S235 and S335 mutants were estimated using thin‐layer chromatography”.

Reference: PMC9832530 (FASEB BioAdvances, 2022)
